From patent publication US6548494B1, “Tricyclic inhibitors of poly(ADP-ribose) polymerases” (Agouron Pharmaceuticals, Inc., priority 1999, dated 2003)
“And” between values parts separate entries of the source, which are not always exact repeats. Equal entries are not always repeated.

Experiments:
[1] = molecular target: purified PARP protein (Homo sapiens, UniProt P09874); test: PARP enzyme inhibition assay; assay type: biochemical; details: 20 nM purified PARP (5 nM for tight-binding inhibitors), 500 μM NAD+, 25° C.; several values in one cell = repeat determinations; read-out: Inhibition Constant Ki
Chain of purified PARP protein (P09874 whole entry): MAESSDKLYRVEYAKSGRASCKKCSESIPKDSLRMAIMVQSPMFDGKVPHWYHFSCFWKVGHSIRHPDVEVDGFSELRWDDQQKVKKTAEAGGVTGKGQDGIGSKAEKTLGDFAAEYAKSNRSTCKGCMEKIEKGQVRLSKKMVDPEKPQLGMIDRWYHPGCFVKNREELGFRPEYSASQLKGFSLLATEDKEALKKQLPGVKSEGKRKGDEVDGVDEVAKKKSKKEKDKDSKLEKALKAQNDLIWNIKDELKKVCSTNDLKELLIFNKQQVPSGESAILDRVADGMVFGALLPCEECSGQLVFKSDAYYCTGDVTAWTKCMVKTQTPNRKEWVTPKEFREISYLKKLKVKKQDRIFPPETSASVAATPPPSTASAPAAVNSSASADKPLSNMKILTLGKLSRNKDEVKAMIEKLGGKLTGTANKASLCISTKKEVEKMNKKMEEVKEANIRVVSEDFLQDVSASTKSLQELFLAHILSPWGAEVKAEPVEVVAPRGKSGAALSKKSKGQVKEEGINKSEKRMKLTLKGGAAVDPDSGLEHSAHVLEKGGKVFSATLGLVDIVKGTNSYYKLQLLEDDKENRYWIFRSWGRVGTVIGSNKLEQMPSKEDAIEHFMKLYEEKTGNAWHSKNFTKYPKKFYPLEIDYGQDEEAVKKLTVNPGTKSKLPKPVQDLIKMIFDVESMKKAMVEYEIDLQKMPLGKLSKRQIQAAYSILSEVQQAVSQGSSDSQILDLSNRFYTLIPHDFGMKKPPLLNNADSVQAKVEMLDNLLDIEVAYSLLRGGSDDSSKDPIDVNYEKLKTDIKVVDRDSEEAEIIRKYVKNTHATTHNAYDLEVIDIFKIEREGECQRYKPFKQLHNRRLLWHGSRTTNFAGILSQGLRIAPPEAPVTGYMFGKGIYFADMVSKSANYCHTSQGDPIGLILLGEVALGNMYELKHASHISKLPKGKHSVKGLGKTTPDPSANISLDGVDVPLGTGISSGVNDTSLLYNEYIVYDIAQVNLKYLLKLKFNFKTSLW

[2] = system: A549 cells; test: Cytotoxicity potentiation assay; assay type: cell-based; details: test compound 0.4 μM, ratio of IC50 of topotecan alone to IC50 of topotecan with test compound
Protocol: A549 cells (ATCC, Rockville, Md.) were seeded into 96-well cell culture plates (Falcon brand, Fisher Scientific, Pittsburgh, Pa.) 16 to 24 hours before experimental manipulation. Cells were then treated with a test compound (or a combination of test compounds where indicated) each at a concentration of 0.4 μM for either 3 days or 5 days. At the end of treatments, relative cell number was determined either by MTT assay or SRB assay. For the MTT assay, 0.2 μg/μl of MTT (3-(4,5-dimethylthiazol-2-yl)-2,5-diphenyltetrazolium bromide) (Sigma Chemical Co., St. Louis, Mo.) was added to each well of a plate, and the plate was incubated in a cell-culture incubator for 4 hours. Metabolized MTT in each well was solubilized in 150 μl of DMSO (Sigma Chemical Co.) with shaking and quantified with a Wallac 1420 Victor plate reader (EG&G Wallac, Gaithersburg, Md.) at 540 nm. For the SRB assay, cells were fixed with 10% trichloroacetic acid (Sigma Chemical Co) for an hour at 4° C. After extensively washing, fixed cells were stained for 30 minutes with 0.4% sulforhodamine B (SRB, Sigma Chemical Co.) in 1% acetic acid (Sigma Chemical Co). Unbound SRB was washed away with 1% acetic acid. Then the cultures were air-dried, and dye was solubilized with 10 mM unbuffered Tris base (Sigma Chemical Co) with shaking. The bound dye was measured photometrically with the Wallac Victor plate reader at 515 nm. The ratio of the OD (optical density) value of a compound-treated culture to the OD value of a mock-treated culture, expressed in percentage, was used to quantify the cytotoxicity of a compound. […] To quantify the potentiation of the cytotoxicity of topotecan or temozolomide by test compounds, a dimensionless parameter PF50 is used and is defined as the ratio of the IC50 of topotecan or temozolomide alone to the IC50 of topotecan or temozolomide in combination with a test compound. For the compounds of the invention, PF50 values were determined by testing with topotecan.

| Ki [1] | melting point | Compound | Cytotoxicity Potentiation PF50 [2] |
| --- | --- | --- | --- |
| 4.2 nM | 110 °C (dec.) | CNCc1cccc(-c2nc3cccc4c3n2CCNC4=O)c1 [Example 59, 1-(3-Methylaminomethyl-phenyl)-8,9-dihydro-7H-2,7,9a-triaza-benzo[cd]azulen-6-one] | 1.8 |
| 1.9 nM | 169 to 172 °C | CNCc1ccc(-c2nc3cccc4c3n2CCNC4=O)cc1 [Example 75, 1-(4-Methylaminomethyl-phenyl)-8,9-dihydro-7H-2,7,9a-triaza-benzo[cd]azulen-6-one] | 1.8 |
| 5.1 nM | 285 to 286 °C (dec.) | O=C1NCCn2c(-c3ccc(CN4CCOCC4)cc3)nc3cccc1c32 [Example 76, 1-(4-Morpholin-4-ylmethyl-phenyl)-8,9-dihydro-7H-2,7,9a-triaza-benzo[cd]azulen-6-one] | 1.6 |
| 6.9 nM | 154 to 157 °C | COCCNCc1ccc(-c2nc3cccc4c3n2CCNC4=O)cc1 [Example 77, 1-(4-[(2-Methoxyethylamino)methyl]-phenyl)-8,9-dihydro-7H-2,7,9a-triaza-benzo[cd]azulen-6-one] | 1.7 |
| 9.1 nM | 98 to 100 °C | CN(C)Cc1cccc(-c2cc3cccc4c3n2CCNC4=O)c1 [Example 86, 6-(3-Dimethylaminomethyl-phenyl)-3,4-dihydro-2H-[1,4]diazepino[6,7,1-hi]indol-1-one] | 1.6 |
| 3.3 nM | 204 to 208 °C (dec.) | CNCc1ccc(-c2nc3cc(F)cc4c3n2CCNC4=O)cc1 [Example 98, 4-Fluoro-1-(4-methylaminomethyl-phenyl)-8,9-dihydro-7H-2,7,9a-triaza-benzo[cd]azulen-6-one] | 2.1 |
| 1.7 nM | 240 °C (dec.) | CN(C)Cc1ccc(-c2nc3cc(F)cc4c3n2CCNC4=O)cc1 [Example 99, 4-Fluoro-1-(4-dimethylaminomethyl-phenyl)-8,9-dihydro-7H-2,7,9a-triaza-benzo[cd]azulen-6-one] | 2.0 |
| 2.3 nM | 84 °C (dec.) | O=C1NCCn2c(-c3ccc(CNC4CC4)cc3)nc3cccc1c32 [Example 101, 1-(4-Cyclopropylaminomethyl-phenyl)-8,9-dihydro-7H-2,7,9a-triaza-benzo[cd]azulen-6-one] | 2.1 |
| 3.2 nM and 4.2 nM | > 300 °C (dec.) | O=C1NCCn2c(-c3ccc(-n4ccnc4)cc3)nc3cccc1c32 [Example 119, 1-(4-Imidazol-1-yl-phenyl)-8,9-dihydro-7H-2,7,9a-triaza-benzo[cd]azulen-6-one] | 2.2 |
| 4.1 nM | 277 to 279 °C | O=C1NCCn2c(-c3ccc(-c4ccccn4)cc3)nc3cccc1c32 [Example 126, 1-(4-Pyridin-2-yl-phenyl)-8,9-dihydro-7H-2,7,9a-triaza-benzo[cd]azulen-6-one] | 2.2 |
| 4 nM and 5.4 nM | > 201 °C (dec.) | O=C1NCCn2c(-c3ccc(CCN4CCCC4)cc3)nc3cccc1c32 [Example 128, 1-[4-(2-Pyrrolidin-1-yl-ethyl)-phenyl]-8,9-dihydro-7H-2,7,9a-triaza-benzo[cd]azulen-6-one] | 1.8 |
| 5 nM | > 98 °C (dec.) | CN(C)CCc1ccc(-c2nc3cccc4c3n2CCNC4=O)cc1 [Example 129, 1-[4-(2-Dimethylamino-ethyl)-phenyl]-8,9-dihydro-7H-2,7,9a-triaza-benzo[cd]azulen-6-one] | 1.9 |
| 4.4 nM and 5.6 nM | 263 to 265 °C | O=C1NCCn2c(-c3ccc(C4CCCCN4)cc3)nc3cccc1c32 (stereo not drawn) [Example 130, 1-(4-Piperidin-2-yl-phenyl)-8,9-dihydro-7H-2,7,9a-triaza-benzo[cd]azulen-6-one] | 3.4 |
| 6.8 nM | > 180 °C (dec.) | CN1CCCCC1c1ccc(-c2nc3cccc4c3n2CCNC4=O)cc1 (stereo not drawn) [Example 132, 1-[4-(1-Methyl-piperidin-2-yl)-phenyl]-8,9-dihydro-7H-2,7,9a-triaza-benzo[cd]azulen-6-one] | 2.4 |
| 2.8 nM | 284 to 286 °C | O=C1NCCn2c(-c3ccc(-c4cccnc4)cc3)nc3cccc1c32 [Example 134, 1-(4-Pyridin-3-yl-phenyl)-8,9-dihydro-7H-2,7,9a-triaza-benzo[cd]azulen-6-one] | 2.5 |
| 5.4 nM | > 192 °C (dec.) | O=C1NCCn2c(-c3ccc(C4CCNCC4)cc3)nc3cccc1c32 [Example 137, 1-(4-Piperidin-4-yl-phenyl)-8,9-dihydro-7H-2,7,9a-triaza-benzo[cd]azulen-6-one] | 2.2 |
| 5.5 nM | > 240 °C (dec.) | CN1CCC(c2ccc(-c3nc4cccc5c4n3CCNC5=O)cc2)CC1 [Example 141, 1-[4-(1-Methyl-piperidin-4-yl)-phenyl]-8,9-dihydro-7H-2,7,9a-triaza-benzo[cd]azulen-6-one] | 2.3 |
| 3.8 nM | > 230 °C (dec.) | O=C1NCCn2c(-c3ccc(C4CCCNC4)cc3)nc3cccc1c32 (stereo not drawn) [Example 142, 1-(4-Piperidin-3-yl-phenyl)-8,9-dihydro-7H-2,7,9a-triaza-benzo[cd]azulen-6-one] | 2.2 |
| 2.8 nM | 220 to 223 °C (dec.) | O=C1NCCn2c(-c3ccc(C4CCCN4)cc3)nc3cccc1c32 (stereo not drawn) [Example 148, 1-(4-Pyrrolidin-2-yl-phenyl)-8,9-dihydro-7H-2,7,9a-triaza-benzo[cd]azulen-6-one] | 2.5 |
| 4.2 nM | 235 to 238 °C (dec.) | CN1CCCC1c1ccc(-c2nc3cccc4c3n2CCNC4=O)cc1 (stereo not drawn) [Example 149] | 2.6 |
| 3.1 nM | 172 to 174 °C | CN(C)Cc1ccc(-c2cc3cc(F)cc4c3n2CCNC4=O)cc1 [Example 170, 6-(4-Dimethylaminomethyl-phenyl)-9-fluoro-3,4-dihydro-2H-[1,4]diazepino[6,7,1-hi]indol-1-one] | 1.9 |

| Compound | Ki [1] | melting point | Cytotoxicity Potentiation PF50 [2] |
| --- | --- | --- | --- |
| O=C1NCCn2c(-c3ccc(Cl)cc3)cc3cccc1c32 [Example 34, 6-(4-Chlorophenyl)-3,4-dihydro-2H-[1,4]diazepino[6,7,1-hi]indol-1-one] | 11 nM | 178 to 180 °C | 1.8 |
